One assay addresses MELK (Homo sapiens, UniProt Q14680). The experiment in a line: Kinase assay: MELK activity, phosphorylation of FITC-labeled histone H3 peptide measured by IMAP fluorescence polarization. The class given is biochemical. To be noted: MELK kinase assay, IMAP fluorescence polarization, 50 micro-M ATP; read-out: IC50 (μM) (kinase assay). Summed up: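 FP readout: FITC-histone H3 peptide phosphorylation, read 0.5 h (RT) after stopping with 3x volume of IMAP progressive binding solution. Final DMSO 1%.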

The next assay deals with A549 cells. Nature of the assay: Cell-based assay: anti-proliferative activity, Cell Counting Kit-8, 72 hours (A549). Particulars: 72 hours. Put shortly:
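Cell Counting Kit-8 read-out of A549 growth after 72 hours of inhibitor exposure, cells plated in 96-well format. Values reported as IC50.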

The next assay has as its system T47D cells. Nature of the assay: Cell-based assay: anti-proliferative activity, Cell Counting Kit-8, 72 hours (T47D). Put shortly:
(§1)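 Cellular growth is read by CCK-8 colorimetric kit 72 h after inhibitor addition to seeded cells, and IC50 values are derived from the resulting data; MELK protein levels in these lines are checked beforehand by immunoblotting whole crude lysate.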
(In general: Tetrazolium assays rely on reduction of a dye to a coloured formazan, in cell work by metabolically active cells.)

A further assay relates to HT-1197 cells. Nature of the assay: Cell-based assay: anti-proliferative activity, Cell Counting Kit-8, 72 hours (HT-1197, negative control without MELK expression). Particulars: HT1197 cells (negative control), 72 hours. Summed up:
as §1

The test system of a further assay is 22Rv1 cells. The experiment in a line: Cell-based assay: anti-proliferative activity, Cell Counting Kit-8, 72 hours (22Rv1).
Another assay relates to DU4475 cells. The experiment in a line: Cell-based assay: anti-proliferative activity, Cell Counting Kit-8, 72 hours (DU4475).

The structures appear in SMILES notation. Counter-ions that a name gives are not always drawn. Like-named read-outs stand apart in the source and are kept apart here.

Sequence of MELK (Q14680 whole entry, looked up): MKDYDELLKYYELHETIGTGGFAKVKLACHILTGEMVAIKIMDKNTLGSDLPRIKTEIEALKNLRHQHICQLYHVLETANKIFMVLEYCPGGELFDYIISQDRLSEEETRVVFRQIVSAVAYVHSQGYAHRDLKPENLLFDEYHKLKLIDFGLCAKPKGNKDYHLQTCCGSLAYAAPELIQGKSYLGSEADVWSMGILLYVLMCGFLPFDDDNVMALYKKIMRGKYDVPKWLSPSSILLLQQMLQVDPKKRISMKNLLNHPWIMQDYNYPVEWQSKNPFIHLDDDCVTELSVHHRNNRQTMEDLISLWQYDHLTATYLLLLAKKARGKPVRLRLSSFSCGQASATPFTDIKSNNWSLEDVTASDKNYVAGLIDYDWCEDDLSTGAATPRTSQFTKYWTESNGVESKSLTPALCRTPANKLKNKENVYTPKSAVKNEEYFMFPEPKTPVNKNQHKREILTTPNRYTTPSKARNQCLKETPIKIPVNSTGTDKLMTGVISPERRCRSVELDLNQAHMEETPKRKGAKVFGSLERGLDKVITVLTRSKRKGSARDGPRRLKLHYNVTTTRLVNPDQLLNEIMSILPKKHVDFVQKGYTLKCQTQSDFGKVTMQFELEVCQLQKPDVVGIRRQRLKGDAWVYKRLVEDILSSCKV

A word on the IC50: it is the concentration at which inhibition is half-maximal. On to `CC(=O)c1cnc2ccc(-c3cn[nH]c3)cc2c1N[C@H]1CC[C@H](CN(C)C)CC1` [Example 912, 1-(4-((1R,4R)-4-((dimethylamino)methyl)cyclohexyl)amino)-6-(1H-pyrazol-4-yl)quinolin-3-yl)ethanone hydrochloride], for which the IC50 on MELK amounted to 0.074 µM; in the assay with A549 cells (Homo sapiens, A549, 72 h), 1.3 µM; in the assay on T47D cells (Homo sapiens, T47D, 72 h) it was 4.2 µM; in the assay with HT-1197 cells (Homo sapiens, HT1197, 72 h), 3 µM; in the assay with 22Rv1 cells (Homo sapiens), 1.7 µM; in the assay on DU4475 cells (Homo sapiens, DU-4475) it was 1.4 µM.
With `CC(=O)c1cnc2ccc(-c3cc(Cl)c(O)c(Cl)c3)cc2c1N[C@H]1CC[C@H](NC(=O)[C@@H]2CCCN2)CC1` [Example 920, (S)—N-((1R,4S)-4-(3-acetyl-6-(3,5-dichloro-4-hydroxyphenyl)quinolin-4-ylamino)cyclohexyl)pyrrolidine-2-carboxamide], the IC50 at MELK came out at 0.0019 µM; in the assay on A549 cells (Homo sapiens, A549, 72 h) it was 0.86 µM; with T47D cells (Homo sapiens, T47D, 72 h), 0.1 µM; in the assay on HT-1197 cells (Homo sapiens, HT1197, 72 h), 6.5 µM; with 22Rv1 cells (Homo sapiens) it was 0.34 µM; in the assay on DU4475 cells (Homo sapiens, DU-4475) it was 0.073 µM.
For the compound `CCC(=O)c1cnc2ccc(-c3cc(Cl)c(O)c(Cl)c3)cc2c1Nc1ccc(N2CCC(N(C)C)C2)nc1` (stereo not drawn) [Example 863, 1-(6-(3,5-dichloro-4-hydroxyphenyl)-4-((6-(3-(dimethylamino)pyrrolidin-1-yl)pyridin-3-yl)amino)quinolin-3-yl)propan-1-one], the half-maximal inhibitory concentration (IC50) on MELK came to 0.0039 µM; in the assay on A549 cells (Homo sapiens, A549, 72 h), 0.5 µM; with T47D cells (Homo sapiens, T47D, 72 h), 0.44 µM; in the assay with HT-1197 cells (Homo sapiens, HT1197, 72 h), 14 µM; in the assay with 22Rv1 cells (Homo sapiens), 0.59 µM; in the assay with DU4475 cells (Homo sapiens, DU-4475), 0.31 µM.
As for `CC(=O)c1cnc2ccc(-c3cc(F)c(O)c(Cl)c3)cc2c1N[C@H]1CC[C@H](C(=O)N(C)C)CC1` [Example 870, (1r,4r)-4-((3-acetyl-6-(3-chloro-5-fluoro-4-hydroxyphenyl)quinolin-4-yl)amino)-N,N-dimethylcyclohexanecarboxamide hydrochloride], the IC50 was found to be 0.035 µM at MELK; 1.6 µM in the assay on A549 cells; 0.53 µM in the assay on T47D cells (72 hours); 3.5 µM in the assay with HT-1197 cells; 2.3 µM with 22Rv1 cells; 2.1 µM in the assay with DU4475 cells.
Consider `CN(C)C[C@H]1CC[C@H](Nc2c(C(=O)C(C)(C)C)cnc3ccc(-c4cc(F)c(O)c(Cl)c4)cc23)CC1` [Example 919, 1-(6-(3-chloro-5-fluoro-4-hydroxy-phenyl)-4-((1R,4R)-4-((dimethylamino)methyl)cyclohexyl)amino)quinolin-3-yl)-2,2-dimethylpropan-1-one hydrochloride], for which the IC50 on MELK turned out to be 0.034 µM; in the assay with A549 cells (Homo sapiens, A549, 72 h), 4.3 µM; in the assay on T47D cells (Homo sapiens, T47D, 72 h), 1.9 µM; in the assay on HT-1197 cells (Homo sapiens, HT1197, 72 h) it was 6.4 µM; in the assay with 22Rv1 cells (Homo sapiens), 3.5 µM; in the assay with DU4475 cells (Homo sapiens, DU-4475), 2.5 µM.
For `CC(=O)c1cnc2ccc(-c3ccc4[nH]ncc4c3)cc2c1N[C@H]1CC[C@H](CN(C)C)CC1` [Example 910, 1-(4-((1R,4R)-4-((dimethylamino)methyl)cyclohexyl)amino)-6-(1H-indazol-5-yl)quinolin-3-yl)ethanone hydrochloride], the 50% inhibitory concentration (IC50) was 0.1 µM on MELK; 2.6 µM in the assay on A549 cells (Homo sapiens, A549, 72 h); 6 µM in the assay with T47D cells (Homo sapiens, T47D, 72 h); 9.8 µM with HT-1197 cells (Homo sapiens, HT1197, 72 h); 3.4 µM with 22Rv1 cells (Homo sapiens); 5.4 µM with DU4475 cells (Homo sapiens, DU-4475).
For `CC(=O)c1cnc2ccc(-c3cc(Cl)c(O)c(Cl)c3)cc2c1N[C@H]1CC[C@H](NC(=O)[C@H](C)N)CC1` [Example 886], the IC50 at MELK was 0.00066 µM; in the assay on A549 cells (Homo sapiens, A549, 72 h), 0.64 µM; in the assay on T47D cells (Homo sapiens, T47D, 72 h) it was 0.045 µM; in the assay on HT-1197 cells (Homo sapiens, HT1197, 72 h), 11 µM; with 22Rv1 cells (Homo sapiens), 0.088 µM; with DU4475 cells (Homo sapiens, DU-4475), 0.016 µM.
For `CN1CCC(n2cc(Nc3c(C(=O)C(C)(C)C)cnc4ccc(-c5cc(Cl)c(O)c(Cl)c5)cc34)cn2)CC1` [Example 931, 1-(6-(3,5-dichloro-4-hydroxyphenyl)-4-((1-(1-methylpiperidin-4-yl)-1H-pyrazol-4-yl)amino)quinolin-3-yl)-2,2-dimethylpropan-1-one hydrochloride], the IC50 was determined as 0.0062 µM on MELK; 1.8 µM in the assay with A549 cells (Homo sapiens, A549, 72 h); 1.4 µM in the assay with T47D cells (Homo sapiens, T47D, 72 h); 100 µM in the assay with HT-1197 cells (Homo sapiens, HT1197, 72 h); 2.1 µM with 22Rv1 cells (Homo sapiens); 1.5 µM with DU4475 cells (Homo sapiens, DU-4475).
Turning to `CC(=O)c1cnc2ccc(-c3cc(F)c(O)c(Cl)c3)cc2c1Nc1cncc(CCN2CCCC2)c1` [Example 880, 1-(6-(3-chloro-5-fluoro-4-hydroxyphenyl)-4-((5-(2-(pyrrolidin-1-yl)ethyl)pyridin-3-yl)amino)quinolin-3-yl)ethanone hydrochloride], the IC50 was found to be 0.04 µM at MELK; 1.8 µM in the assay with A549 cells (Homo sapiens, A549, 72 h); 3.1 µM in the assay on T47D cells (Homo sapiens, T47D, 72 h); 46 µM in the assay with HT-1197 cells (Homo sapiens, HT1197, 72 h); 7.4 µM in the assay with 22Rv1 cells (Homo sapiens); 0.96 µM with DU4475 cells (Homo sapiens, DU-4475).
Consider `CC(=O)c1cnc2cc(C)c(-c3cc(Cl)c(O)c(Cl)c3)cc2c1Nc1ccc(N2CCN(C)CC2)nc1` [Example 866, 1-(6-(3,5-dichloro-4-hydroxyphenyl)-7-methyl-4-((6-(4-methylpiperazin-1-yl)pyridin-3-yl)amino)quinolin-3-yl)ethanone hydrochloride], for which the IC50 amounted to 0.34 µM at MELK; 2.3 µM with A549 cells (Homo sapiens, A549, 72 h); 2.4 µM in the assay with T47D cells (Homo sapiens, T47D, 72 h); 4.5 µM in the assay on HT-1197 cells (Homo sapiens, HT1197, 72 h); 4.1 µM with 22Rv1 cells (Homo sapiens); 2.9 µM in the assay on DU4475 cells (Homo sapiens, DU-4475).
Take `CC(=O)c1cnc2ccc(-c3ccc4nc[nH]c4c3)cc2c1N[C@H]1CC[C@H](CN(C)C)CC1` [Example 911, 1-(6-(1H-benzo[d]imidazol-6-yl)-4-((1R,4R)-4-((dimethylamino)methyl)cyclohexyl)amino)quinolin-3-yl) ethanone hydrochloride]: the IC50 on MELK amounted to 0.13 µM; with A549 cells (Homo sapiens, A549, 72 h), 3.2 µM; in the assay with T47D cells (Homo sapiens, T47D, 72 h), 10 µM; in the assay with HT-1197 cells (Homo sapiens, HT1197, 72 h), 13 µM; in the assay on 22Rv1 cells (Homo sapiens), 5.4 µM; with DU4475 cells (Homo sapiens, DU-4475), 10 µM.
On to `CC(=O)c1cnc2ccc(-c3cc(F)c(O)c(Cl)c3)cc2c1N[C@H]1CC[C@H](NC(=O)CN(C)C)CC1` [Example 876], for which the IC50 on MELK stood at 0.0088 µM; in the assay on A549 cells (Homo sapiens, A549, 72 h), 0.16 µM; with T47D cells (Homo sapiens, T47D, 72 h) it was 0.033 µM; in the assay with HT-1197 cells (Homo sapiens, HT1197, 72 h), 1.5 µM; in the assay with 22Rv1 cells (Homo sapiens) it was 0.14 µM; with DU4475 cells (Homo sapiens, DU-4475) it was 0.092 µM.
Consider `CN1CCC(n2cc(Nc3c(C(=O)C(C)(C)C)cnc4ccc(-c5cc(F)c(O)c(Cl)c5)cc34)cn2)CC1` [Example 930, 1-(6-(3-chloro-5-fluoro-4-hydroxy-phenyl)-4-((1-(1-methylpiperidin-4-yl)-1H-pyrazol-4-yl)amino)quinolin-3-yl)-2,2-dimethylpropan-1-one hydrochloride], for which the IC50 at MELK was determined as 0.017 µM; in the assay with A549 cells (Homo sapiens, A549, 72 h), 4.4 µM; with T47D cells (Homo sapiens, T47D, 72 h) it was 1.7 µM; in the assay with HT-1197 cells (Homo sapiens, HT1197, 72 h), 14 µM; in the assay with 22Rv1 cells (Homo sapiens), 2.5 µM; with DU4475 cells (Homo sapiens, DU-4475), 1.3 µM.
Take `CC(N)C(=O)N[C@H]1CC[C@H](Nc2c(C(=O)C(C)(C)C)cnc3ccc(-c4cc(F)c(O)c(Cl)c4)cc23)CC1` (stereo partly drawn) [Example 932, 2-amino-N-(1R,4R)-4-((6-(3-chloro-5-fluoro-4-hydroxyphenyl)-3-pivaloyl-quinolin-4-yl)amino)cyclohexyl) propanamide hydrochloride]: the IC50 at MELK came out at 0.047 µM; in the assay on A549 cells (Homo sapiens, A549, 72 h), 4.7 µM; in the assay with T47D cells (Homo sapiens, T47D, 72 h) it was 0.71 µM; in the assay with HT-1197 cells (Homo sapiens, HT1197, 72 h), 7.6 µM; in the assay with 22Rv1 cells (Homo sapiens), 1.6 µM; in the assay with DU4475 cells (Homo sapiens, DU-4475), 1 µM.
Regarding `CC(=O)c1cnc2ccc(-c3cc(F)c(O)c(Cl)c3)cc2c1N[C@H]1CC[C@H](NC(=O)[C@@H](N)C(C)(C)C)CC1` [Example 914, (S)-N-((1r,4S)-4-((3-acetyl-6-(3-chloro-5-fluoro-4-hydroxyphenyl)quinolin-4-yl)amino)cyclohexyl)-2-amino-3,3-dimethylbutanamide hydrochloride], the IC50 stood at 0.028 µM at MELK; 0.65 µM in the assay with A549 cells (Homo sapiens, A549, 72 h); 0.075 µM in the assay with T47D cells (Homo sapiens, T47D, 72 h); 3.6 µM in the assay with HT-1197 cells (Homo sapiens, HT1197, 72 h); 0.28 µM in the assay with 22Rv1 cells (Homo sapiens); 0.19 µM with DU4475 cells (Homo sapiens, DU-4475).
Regarding `CN(C)CCOc1ccc(Nc2c(S(C)(=O)=O)cnc3ccc(-c4cc(Cl)c(O)c(Cl)c4)cc23)cn1` [Example 884, 2,6-dichloro-4-(4-((6-(2-(dimethylamino)ethoxy)pyridin-3-yl)amino)-3-(methylsulfonyl)quinolin-6-yl)phenol hydrochloride], the IC50 on MELK worked out at 0.0035 µM; in the assay on A549 cells (Homo sapiens, A549, 72 h), 2.1 µM; in the assay with T47D cells (Homo sapiens, T47D, 72 h) it was 0.91 µM; in the assay on HT-1197 cells (Homo sapiens, HT1197, 72 h), 13 µM; in the assay on 22Rv1 cells (Homo sapiens), 4.1 µM; with DU4475 cells (Homo sapiens, DU-4475), 0.51 µM.
With `CC(=O)c1cnc2ccc(-c3ccc4nc[nH]c4c3)cc2c1Nc1cnn(C2CCN(C)CC2)c1` [Example 895, 1-(6-(1H-benzo[d]imidazol-6-yl)-4-((1-(1-methylpiperidin-4-yl)-1H-pyrazol-4-yl)amino)quinolin-3-yl)ethanone hydrochloride], the IC50 on MELK worked out at 0.065 µM; with A549 cells (Homo sapiens, A549, 72 h), 4 µM; in the assay with T47D cells (Homo sapiens, T47D, 72 h) it was 0.94 µM; with HT-1197 cells (Homo sapiens, HT1197, 72 h) it was 9.3 µM; in the assay with 22Rv1 cells (Homo sapiens), 2.2 µM; with DU4475 cells (Homo sapiens, DU-4475), 9.1 µM.

(Values after US9120749B2, “Quinoline derivatives and MELK inhibitors containing the same” (ONCOTHERAPY SCIENCE, INC., priority 2010, dated 2015).)
